The results in this text go back to article PMC12668310, “High‐Throughput Synthesis and Screening of a Cyanimide Library Identifies Selective Inhibitors of ISG15‐Specific Protease mUSP18” (Angewandte Chemie (International Ed. in English), 2025).

The assay has as its target T1, mUSP18 (Mus musculus, UniProt Q9WTV6).
T1 construct: (46-368); His-tag (N); made in house
T1 sequence (Q9WTV6 46-368): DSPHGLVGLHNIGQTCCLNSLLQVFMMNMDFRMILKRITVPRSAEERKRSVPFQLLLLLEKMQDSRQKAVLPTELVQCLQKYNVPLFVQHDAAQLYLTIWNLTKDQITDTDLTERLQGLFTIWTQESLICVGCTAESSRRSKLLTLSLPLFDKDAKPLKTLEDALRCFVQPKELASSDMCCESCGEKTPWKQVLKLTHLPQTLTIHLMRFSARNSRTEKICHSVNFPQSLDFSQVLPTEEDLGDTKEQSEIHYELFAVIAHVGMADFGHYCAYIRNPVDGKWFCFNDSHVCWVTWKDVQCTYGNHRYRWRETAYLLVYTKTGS
Nature of the assay: High-throughput screening, ISG15ct-RhoMP, single dose 1.25 µM. The assay is classed as biochemical, murine. Particulars: mUSP18 %inhibition.

Setting [1] is: carboxylic acid (CA) building block alone, read-out: %inh CA only.
[2] abbreviates: carboxylic acid (CA) with coupling reagents DIC/HOBT, read-out: %inh CA + DIC/HOBT.

Where two headings read alike, the source gives them in different places.

With `O=C(O)c1cccc(S(=O)(=O)NC2CC2)c1` [CA143], the inhibition at 1.25 µM amounted to 5.82% under setting [1] and 3.07% under setting [2].

For the molecule `O=C(O)c1ccc(Oc2cccc(Cl)c2Cl)nn1` [CA144], the inhibition at 1.25 µM was 10.8% under setting [1] and 12.9% under setting [2].

`CC1CC1C(=O)N1CCCCC1C(=O)O` (centres unmarked) [CA145]: the inhibition at 1.25 µM by setting is: under setting [1], 4.43%; under setting [2], 1.71%.

With `O=C(O)c1ncoc1-c1ccco1` [CA146], the inhibition at 1.25 µM came to 8.58% under setting [1] and 6.8% under setting [2].

`COc1cc(C(=O)O)ccc1OCc1c(C)noc1C` [CA147]: the inhibition at 1.25 µM is, setting by setting: under setting [1], 5.62%; under setting [2], 3.45%.

`O=C(O)c1cc(-c2ccc(Cl)s2)[nH]n1` [CA148]: the inhibition at 1.25 µM runs as follows: under setting [1], 7.78%; under setting [2], 9.65%.

Consider `O=C(O)Cc1ccc(S(=O)(=O)N2CCOCC2)s1` [CA149], for which the inhibition at 1.25 µM is 9.87% under setting [1] and 8.05% under setting [2].

`O=C(O)c1cc(OCc2ccccc2)ccn1` [CA150]: the inhibition at 1.25 µM came to 3.17% under setting [1] and 5.95% under setting [2].

Regarding `CN(Cc1ccco1)c1ccccc1C(=O)O` [CA151], the inhibition at 1.25 µM was found to be 3.28% under setting [1] and 7.61% under setting [2].

Turning to `Cc1cccc(C(=O)N2CCCCC2C(=O)O)n1` (centres unmarked) [CA152], the inhibition at 1.25 µM by setting is: under setting [1], 2.22%; under setting [2], 6.16%.

As for `Cc1nc(-c2c(C)c(C)nn(C)c2=O)sc1C(=O)O` [CA153], the inhibition at 1.25 µM is, setting by setting: under setting [1], 1.24%; under setting [2], 3.87%.

As for `O=C(O)c1cnc(COc2ccccc2)s1` [CA154], the inhibition at 1.25 µM runs as follows: under setting [1], 0.13%; under setting [2], 5.09%.

In the case of `CC1=NN(c2ccc(C(=O)O)cc2)CC1` [CA155], the inhibition at 1.25 µM runs as follows: under setting [1], 4.05%; under setting [2], 20.8%.

Consider `Cc1oc(Cn2cc(Br)cn2)cc1C(=O)O` [CA156], for which the inhibition at 1.25 µM under setting [1] was 8.69% and the inhibition at 1.25 µM under setting [2] worked out at 12.3%.

`Cn1cc(S(=O)(=O)NCc2ccco2)cc1C(=O)O` [CA157]: the inhibition at 1.25 µM came to 2.07% under setting [1] and 6.58% under setting [2].

Take `O=C(O)Cc1cccc(OCc2ccccn2)c1` [CA158]: the inhibition at 1.25 µM is, setting by setting: under setting [1], 1.44%; under setting [2], 6.76%.

Regarding `Cc1nc(-c2ncccn2)sc1C(=O)O` [CA159], the inhibition at 1.25 µM was 2.85% under setting [1] and 8.46% under setting [2].

In the case of `O=C(O)c1cn(CCc2ccccc2)nn1` [CA160], the inhibition at 1.25 µM is, setting by setting: under setting [1], 3.82%; under setting [2], 10.4%.

`O=C(O)c1cn(CC(=O)N2CCCC2)nn1` [CA161]: the inhibition at 1.25 µM runs as follows: under setting [1], 2.32%; under setting [2], 14.5%.

As to `COc1ccccc1-c1nnc(CC(=O)O)o1` [CA162], the inhibition at 1.25 µM is, setting by setting: under setting [1], 23.2%; under setting [2], 4.62%.

For `Cc1ccc(N(CCC(=O)O)S(=O)(=O)c2ccccc2)cc1` [CA163], the inhibition at 1.25 µM under setting [1] was found to be 18.6% and the inhibition at 1.25 µM under setting [2] stood at 0.52%.

In the case of `Cn1nccc1[1C@@H]1OCCC[1C@H]1C(=O)O` [CA164], the inhibition at 1.25 µM under setting [1] is 14.4% and the inhibition at 1.25 µM under setting [2] was -2.41%.

Turning to `O=C(O)c1cc(-c2ccc(Br)cc2)ns1` [CA165], the inhibition at 1.25 µM by setting is: under setting [1], 16%; under setting [2], 9.48%.

With `Cn1ncc(C2CC2)c1C(=O)O` [CA166], the inhibition at 1.25 µM is 10.9% under setting [1] and -0.27% under setting [2].

For the molecule `CCC1(Cn2cc(C(=O)O)nn2)COC1` [CA167], the inhibition at 1.25 µM is 10.3% under setting [1] and 2.71% under setting [2].

Consider `O=C(O)c1cc(-n2ccnn2)ccc1F` [CA168], for which the inhibition at 1.25 µM was 11.2% under setting [1] and -1.08% under setting [2].

`O=C(O)c1noc(-c2cccc(Cl)c2)n1` [CA169]: the inhibition at 1.25 µM is 8.46% under setting [1] and 4.42% under setting [2].

`Cc1nnnn1-c1cc(C(=O)O)cc(C(F)(F)F)c1` [CA171]: the inhibition at 1.25 µM under setting [1] worked out at 9.55% and the inhibition at 1.25 µM under setting [2] worked out at 3.27%.
